In ChEMBL document CHEMBL1909046, “DrugMatrix in vitro pharmacology data”:

What was measured:
Endothelin-1 receptor = molecular target: T1, Endothelin-1 receptor (Homo sapiens, UniProt P25101); format: cell membranes, CHO-K1, Membrane; conditions: cho-k1; also: in other assays of this panel Not Active means under 50% inhibition at 10 µM
T1 sequence (P25101 whole entry): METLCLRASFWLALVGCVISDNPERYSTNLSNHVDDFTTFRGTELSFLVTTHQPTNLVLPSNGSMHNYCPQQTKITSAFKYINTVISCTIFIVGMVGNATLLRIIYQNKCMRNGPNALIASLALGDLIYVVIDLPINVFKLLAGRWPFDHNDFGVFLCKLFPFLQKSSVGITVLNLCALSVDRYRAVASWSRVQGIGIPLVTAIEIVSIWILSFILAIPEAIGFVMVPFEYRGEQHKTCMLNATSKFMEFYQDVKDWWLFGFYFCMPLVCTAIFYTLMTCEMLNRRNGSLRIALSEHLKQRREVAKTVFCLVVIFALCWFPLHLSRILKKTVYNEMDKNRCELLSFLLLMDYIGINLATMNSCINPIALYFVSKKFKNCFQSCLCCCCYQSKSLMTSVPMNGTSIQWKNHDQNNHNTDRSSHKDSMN

[1] = DRUGMATRIX: Serotonin (5-Hydroxytryptamine) 5-HT3 radioligand binding (ligand: [3H] GR-65630); format: cell membranes, Membrane; conditions: hek293; Not Active = under 50% inhibition at 10 µM
[2] = molecular target: C-C chemokine receptor type 2 (Homo sapiens, UniProt P41597); format: cell membranes, CHO-K1, Membrane; conditions: cho-k1; also: in other assays of this panel Not Active means under 50% inhibition at 10 µM
Chain of C-C chemokine receptor type 2 (P41597 whole entry): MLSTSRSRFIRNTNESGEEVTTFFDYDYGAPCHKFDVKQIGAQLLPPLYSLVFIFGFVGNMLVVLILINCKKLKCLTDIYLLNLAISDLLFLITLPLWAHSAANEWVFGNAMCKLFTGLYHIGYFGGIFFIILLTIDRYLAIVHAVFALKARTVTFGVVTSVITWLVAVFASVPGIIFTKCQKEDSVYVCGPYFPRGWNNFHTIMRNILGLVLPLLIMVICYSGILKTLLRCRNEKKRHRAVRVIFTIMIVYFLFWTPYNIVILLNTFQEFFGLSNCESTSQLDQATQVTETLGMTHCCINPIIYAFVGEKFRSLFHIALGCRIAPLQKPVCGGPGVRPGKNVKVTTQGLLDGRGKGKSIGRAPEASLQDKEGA

[3] = molecular target: Prostaglandin G/H synthase 1 (Homo sapiens, UniProt P23219); experiment: biochemical; format: tissue-based, Platelet;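 also: inhibition of COX-1 enzyme activity, with arachidonic acid supplied as substrate; in other assays of this panel Not Active means under 50% inhibition at 10 µM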
Chain of Prostaglandin G/H synthase 1 (P23219 whole entry): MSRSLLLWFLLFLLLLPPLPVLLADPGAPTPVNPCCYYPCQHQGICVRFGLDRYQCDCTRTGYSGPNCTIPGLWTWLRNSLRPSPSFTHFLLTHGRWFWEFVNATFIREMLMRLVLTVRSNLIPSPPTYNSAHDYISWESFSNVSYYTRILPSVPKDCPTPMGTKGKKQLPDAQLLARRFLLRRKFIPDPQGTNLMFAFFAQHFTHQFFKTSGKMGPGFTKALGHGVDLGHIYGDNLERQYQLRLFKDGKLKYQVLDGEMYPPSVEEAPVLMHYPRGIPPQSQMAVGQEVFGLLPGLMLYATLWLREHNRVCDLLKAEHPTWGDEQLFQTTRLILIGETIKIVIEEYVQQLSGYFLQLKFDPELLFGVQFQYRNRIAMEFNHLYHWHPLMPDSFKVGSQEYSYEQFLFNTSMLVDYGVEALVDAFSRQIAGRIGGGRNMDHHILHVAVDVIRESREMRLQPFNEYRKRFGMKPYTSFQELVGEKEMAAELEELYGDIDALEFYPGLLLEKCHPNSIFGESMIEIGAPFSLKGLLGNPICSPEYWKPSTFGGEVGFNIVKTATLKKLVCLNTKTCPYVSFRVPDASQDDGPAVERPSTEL

Thromboxane-A synthase = molecular target: T2, Thromboxane-A synthase (Homo sapiens, UniProt P24557); experiment: biochemical; format: tissue-based, Platelet;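 also: enzyme inhibition assay with PGH2 supplied as substrate; in other assays of this panel Not Active means under 50% inhibition at 10 µM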
T2 sequence (P24557 whole entry): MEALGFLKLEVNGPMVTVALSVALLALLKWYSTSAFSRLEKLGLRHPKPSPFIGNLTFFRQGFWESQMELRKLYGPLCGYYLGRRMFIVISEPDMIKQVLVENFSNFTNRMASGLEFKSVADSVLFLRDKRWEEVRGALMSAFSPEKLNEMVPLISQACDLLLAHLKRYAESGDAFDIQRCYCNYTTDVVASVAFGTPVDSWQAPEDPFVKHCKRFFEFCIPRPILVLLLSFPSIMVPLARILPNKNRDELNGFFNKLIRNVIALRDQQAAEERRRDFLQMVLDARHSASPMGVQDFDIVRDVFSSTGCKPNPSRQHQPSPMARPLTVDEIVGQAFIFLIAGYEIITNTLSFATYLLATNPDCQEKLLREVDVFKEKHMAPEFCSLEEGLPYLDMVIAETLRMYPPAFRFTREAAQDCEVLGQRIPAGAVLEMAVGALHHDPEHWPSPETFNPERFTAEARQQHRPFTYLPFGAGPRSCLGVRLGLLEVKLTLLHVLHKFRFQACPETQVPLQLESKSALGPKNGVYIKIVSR

Estrogen receptor = molecular target: T3, Estrogen receptor (Homo sapiens, UniProt P03372); conditions: sf9; also: in other assays of this panel Not Active means under 50% inhibition at 10 µM
T3 sequence (P03372 whole entry): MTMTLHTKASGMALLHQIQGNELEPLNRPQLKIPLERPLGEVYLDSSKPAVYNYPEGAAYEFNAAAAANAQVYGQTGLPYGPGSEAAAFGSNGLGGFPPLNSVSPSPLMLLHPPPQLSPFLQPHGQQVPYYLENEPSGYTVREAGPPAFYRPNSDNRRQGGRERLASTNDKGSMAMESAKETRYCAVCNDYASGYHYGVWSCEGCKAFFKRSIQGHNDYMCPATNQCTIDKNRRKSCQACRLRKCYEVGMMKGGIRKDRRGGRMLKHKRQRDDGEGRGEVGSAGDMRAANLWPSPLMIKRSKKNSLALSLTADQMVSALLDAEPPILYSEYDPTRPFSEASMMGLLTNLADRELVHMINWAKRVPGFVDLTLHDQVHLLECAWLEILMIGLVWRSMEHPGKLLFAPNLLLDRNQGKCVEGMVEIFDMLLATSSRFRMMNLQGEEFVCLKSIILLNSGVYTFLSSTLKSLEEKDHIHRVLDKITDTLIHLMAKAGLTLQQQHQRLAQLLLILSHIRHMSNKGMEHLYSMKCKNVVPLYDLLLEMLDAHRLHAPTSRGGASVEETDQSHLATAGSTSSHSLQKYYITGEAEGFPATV

[4] = molecular target: Sodium-dependent dopamine transporter (Homo sapiens, UniProt Q01959); experiment: DRUGMATRIX: Dopamine Transporter radioligand binding (ligand: [125I] RTI-55); format: cell membranes, CHO-K1, Membrane; conditions: Not Active = under 50% inhibition at 10 µM
Chain of Sodium-dependent dopamine transporter (Q01959 whole entry): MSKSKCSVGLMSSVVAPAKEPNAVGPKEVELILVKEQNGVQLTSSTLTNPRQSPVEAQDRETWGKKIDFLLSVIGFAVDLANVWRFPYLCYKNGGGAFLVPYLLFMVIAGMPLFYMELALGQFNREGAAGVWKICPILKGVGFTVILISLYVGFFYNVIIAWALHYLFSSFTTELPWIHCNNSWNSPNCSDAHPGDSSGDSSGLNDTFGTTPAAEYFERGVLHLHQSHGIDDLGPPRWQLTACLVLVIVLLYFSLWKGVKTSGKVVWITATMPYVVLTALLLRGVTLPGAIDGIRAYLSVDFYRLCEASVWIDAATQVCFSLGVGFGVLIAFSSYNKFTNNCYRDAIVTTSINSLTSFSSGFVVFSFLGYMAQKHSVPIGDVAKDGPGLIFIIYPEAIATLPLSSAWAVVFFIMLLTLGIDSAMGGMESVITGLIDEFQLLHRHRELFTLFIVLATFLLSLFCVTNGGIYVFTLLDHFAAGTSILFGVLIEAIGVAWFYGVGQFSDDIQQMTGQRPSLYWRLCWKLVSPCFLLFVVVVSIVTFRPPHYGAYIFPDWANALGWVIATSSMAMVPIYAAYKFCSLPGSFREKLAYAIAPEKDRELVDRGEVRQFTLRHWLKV

SMILES	IC50 (Endothelin-1 receptor)	IC50 [1]	Ki [1]	IC50 [2]	IC50 ([3]; platelet)	IC50 (Thromboxane-A synthase; read-out: IC50) [nM]	IC50 (Estrogen receptor)	IC50 ([4]; cho-k1)	IC50 ([3]; read-out: IC50) [nM]	IC50 (Thromboxane-A synthase; platelet)	Ki (Endothelin-1 receptor)	Ki [2]	Ki ([3]; platelet)	Ki (Thromboxane-A synthase; platelet)	Ki (Estrogen receptor)	Ki ([4]; cho-k1)	IC50 ([4]; read-out: IC50) [nM]	Ki ([4]; read-out: Ki) [nM]
CC(C)CN(C[C@@H](O)[C@H](Cc1ccccc1)NC(=O)O[C@H]1CCOC1)S(=O)(=O)c1ccc(N)cc1	Not Active	Not Active	Not Active	Not Active	Not Active	6730	Not Active	Not Active										
c1ccc(Nc2ccc(Nc3ccccc3)cc2)cc1	Not Active	Not Active	Not Active	Not Active			Not Active	Not Active	260	Not Active								
NC(=O)N1c2ccccc2CCc2ccccc21	Not Active	Not Active	Not Active	Not Active	Not Active		Not Active	Not Active		Not Active								
Cc1onc(O)c1CC(N)C(=O)O (racemic) [(R,S)-AMPA]	Not Active	Not Active	Not Active	Not Active	Not Active		Not Active	Not Active		Not Active								
Cc1ccc2cc3c(ccc4ccccc43)c3c2c1CC3 [3-METHYLCHOLANTHRENE]	Not Active	Not Active	Not Active	Not Active	Not Active		Not Active	Not Active		Not Active								
CC[C@@]1(O)C[C@H](O[C@H]2C[C@H](N(C)C)[C@H](O[C@H]3C[C@H](O)[C@H](O[C@H]4CCC(=O)[C@H](C)O4)[C@H](C)O3)[C@H](C)O2)c2c(cc3c(c2O)C(=O)c2c(O)cccc2C3=O)[C@H]1C(=O)OC [ACLARUBICIN]	Not Active	Not Active	Not Active	Not Active	Not Active		Not Active	Not Active		Not Active								
Nc1nc2c(ncn2COCCO)c(=O)[nH]1 [ACYCLOVIR]	Not Active	Not Active	Not Active	Not Active	Not Active		Not Active	Not Active		Not Active								
Cc1c(C)c2c(c(C)c1O)CC[C@@](C)(CCC[C@H](C)CCC[C@H](C)CCCC(C)C)O2 [ALPHA-TOCOPHEROL]	Not Active	Not Active	Not Active	Not Active	Not Active		Not Active	Not Active		Not Active								
Nc1c(Br)cc(Br)cc1CN[C@H]1CC[C@H](O)CC1 [AMBROXOL]	Not Active	Not Active	Not Active	Not Active	Not Active		Not Active	Not Active		Not Active								
NCCCCCC(=O)O [AMINOCAPROIC ACID]	Not Active	Not Active	Not Active	Not Active	Not Active		Not Active	Not Active		Not Active								
CCC1(c2ccc(N)cc2)CCC(=O)NC1=O (centres undefined) [AMINOGLUTETHIMIDE]	Not Active	Not Active	Not Active	Not Active	Not Active		Not Active	Not Active		Not Active								
Cc1ccc(/N=C/N(C)/C=N/c2ccc(C)cc2C)c(C)c1 [AMITRAZ]	Not Active	Not Active	Not Active	Not Active	Not Active		Not Active	Not Active		Not Active								
CCOC(=O)C1=C(COCCN)NC(C)=C(C(=O)OC)C1c1ccccc1Cl (centres undefined) [AMLODIPINE]	Not Active	Not Active	Not Active	Not Active	Not Active		Not Active			Not Active								
COc1ccc(C[C@H]2NC[C@H](O)[C@H]2OC(C)=O)cc1 [ANISOMYCIN]	Not Active	Not Active	Not Active	Not Active	Not Active		Not Active	Not Active		Not Active	Not Active	Not Active	Not Active	Not Active	Not Active	Not Active		
Nc1ncn([C@@H]2O[C@H](CO)[C@@H](O)[C@H]2O)c(=O)n1 [AZACITIDINE]	Not Active	Not Active	Not Active	Not Active	Not Active		Not Active	Not Active		Not Active								
CN(C)C(=O)Oc1cc(OC(=O)N(C)C)cc(C(O)CNC(C)(C)C)c1 (centres undefined) [BAMBUTEROL]	Not Active	Not Active	Not Active	Not Active	Not Active		Not Active	Not Active		Not Active								
c1ccc2c(c1)c1cccc3ccc4cccc2c4c31 [BENZO[E]PYRENE]	Not Active	Not Active	Not Active	Not Active	Not Active		Not Active	Not Active		Not Active								
CC(C)C(Br)C(=O)NC(N)=O (centres undefined) [BROMISOVALUM]	Not Active	Not Active	Not Active	Not Active	Not Active		Not Active	Not Active		Not Active								
CN(Cc1ccc(C(C)(C)C)cc1)Cc1cccc2ccccc12 [BUTENAFINE]	Not Active	Not Active	Not Active	Not Active	Not Active		Not Active	Not Active		Not Active								
Cc1ccc(-c2cc(C(F)(F)F)nn2-c2ccc(S(N)(=O)=O)cc2)cc1 [CELECOXIB]	Not Active	Not Active	Not Active	Not Active			Not Active			Not Active							2430	1930
O=C(O)CCCc1ccc(N(CCCl)CCCl)cc1 [CHLORAMBUCIL]	Not Active	Not Active	Not Active	Not Active	Not Active		Not Active	Not Active		Not Active								
C[C@H](CCC(=O)O)[C@H]1CC[C@H]2[C@@H]3[C@H](O)C[C@@H]4C[C@H](O)CC[C@]4(C)[C@H]3C[C@H](O)[C@]12C [CHOLIC ACID]	Not Active	Not Active	Not Active	Not Active	Not Active		Not Active	Not Active		Not Active								
Cc1cc(C2CCCCC2)n(O)c(=O)c1 [CICLOPIROX]	Not Active	Not Active	Not Active	Not Active	Not Active		Not Active	Not Active		Not Active								
CC1=C2C(=CO[C@H](C)[C@H]2C)C(O)=C(C(=O)O)C1=O [CITRININ]	Not Active	Not Active	Not Active	Not Active	Not Active		Not Active	Not Active		Not Active								
CNCCCN1c2ccccc2CCc2ccccc21 [DESIPRAMINE]	Not Active	Not Active	Not Active	Not Active	Not Active		Not Active			Not Active								
